Results: US4870187A, “Antihypercholesterolemic tetrazol-1-yl compounds” (Bristol-Myers Company, priority 1988, dated 1989)
Structures can show the parent of a compound that is named as a salt.

Tests used:
[1] = target: T1, rat liver HMG-CoA reductase (Rattus norvegicus, UniProt P51639); assay: Test A: In Vitro Inhibition of Microsomal HMG-CoA Reductase; type: biochemical; conditions: rat liver microsomes; 0.33 mM d,1-[3-14C]-HMG-CoA, 3.0 mM NADPH, pH 7.2
T1 construct: from tissue; host or cells: rat liver microsomes
T1 sequence (P51639 1-887): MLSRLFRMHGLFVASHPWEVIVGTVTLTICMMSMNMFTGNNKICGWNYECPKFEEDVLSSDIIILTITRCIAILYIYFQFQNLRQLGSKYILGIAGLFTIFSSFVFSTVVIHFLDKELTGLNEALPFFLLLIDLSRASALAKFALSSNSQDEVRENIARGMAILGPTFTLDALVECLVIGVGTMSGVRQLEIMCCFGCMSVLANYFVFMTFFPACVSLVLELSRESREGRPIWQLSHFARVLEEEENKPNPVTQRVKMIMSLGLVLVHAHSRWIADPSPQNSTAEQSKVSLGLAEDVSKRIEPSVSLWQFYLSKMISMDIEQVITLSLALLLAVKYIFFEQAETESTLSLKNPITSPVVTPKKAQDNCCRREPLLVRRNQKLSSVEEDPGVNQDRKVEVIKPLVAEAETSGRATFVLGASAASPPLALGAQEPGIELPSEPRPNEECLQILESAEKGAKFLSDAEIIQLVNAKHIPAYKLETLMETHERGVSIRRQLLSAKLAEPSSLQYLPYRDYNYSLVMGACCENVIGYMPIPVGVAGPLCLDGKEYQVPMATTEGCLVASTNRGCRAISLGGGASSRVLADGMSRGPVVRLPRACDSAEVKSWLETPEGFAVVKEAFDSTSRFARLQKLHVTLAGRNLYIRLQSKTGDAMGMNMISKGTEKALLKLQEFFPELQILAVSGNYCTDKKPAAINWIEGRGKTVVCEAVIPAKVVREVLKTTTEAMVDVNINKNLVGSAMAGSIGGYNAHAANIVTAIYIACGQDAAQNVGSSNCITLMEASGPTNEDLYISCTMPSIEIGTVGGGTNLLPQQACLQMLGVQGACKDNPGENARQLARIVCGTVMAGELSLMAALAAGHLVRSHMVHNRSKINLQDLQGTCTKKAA
Protocol: The intact, fully activated microsomal form of rat liver HMG-CoA reductase (subunit MW ca 100,000 daltons) was prepared as described by Parker, et al., Biochem. Biophys. Res. Commun., 125, 629-635 (1984), and used as the source of enzyme for assays. HMG-CoA reductase activity was determined essentially by the method of Shapiro, et al., Biochem. Biophys. Acta., 370, 369-377 (1974), with modifications as described by Ingebritsen and Gibson, Meth. Enzymol. 71, 486-497 (1981) with the exception that the internal standard ^3 H-mevalonolactone is added after termination of the assay. […]
To measure reductase inhibition, test compounds dissolved in water or dimethylsulfoxide and diluted in buffer A (50 mM imidazole-HCl, 250 mM NaCl, 1 mM EDTA, 1 mM EGTA, 5 mM DTT, 20 μM leupeptin, pH=7.2) were incubated with aliquots of microsomes (80-160 μg protein in buffer A) followed by addition of d,1-[3-^14 C]-HMG-CoA (0.33 mM, 2.0 dpm/picomole) and NADPH (3.0 mM). The 50 percent inhibitory concentration (IC50) for each compound in Table 1 was calculated from the linear regression line of the percent decrease (from control) in enzyme activity vs. log concentration of inhibitor, determined using at least 4 dilutions of each test compound assayed in duplicate.

[2] = test system: Isolated Hepatocyte Cholesterol Biosynthesis; assay: Test B: Isolated Hepatocyte Cholesterol Biosynthesis Assay; type: cell-based, male Wistar rats; conditions: rat hepatocytes, 10 min preincubation, 60 min incubation at 37°, pH 7.35, read-out: IC50, Inhibition of Isolated Hepatocyte Cholesterol Biosynthesis
Protocol: Intact parenchymal hepatocytes were isolated from male Wistar rats (180-280 g) fed cholestyramine containing or normal diet, using the collagenase perfusion method essentially as described by Seglen, in Methods in Cell Biology (D. Prescott, ed.) Vol. 13, pp. 29-83, Academic Press, New York (1976). Cell preparations were used only when viability (trypan blue exclusion) exceeded 90%. Cholesterol biosynthesis was determined as the incorporation by hepatocytes of ^3 H from [^3 H]-water into total (cellular plus medium) 3β-hydroxy sterols as per Ingebritsen, et al., J. Biol. Chem., 254, 9986-9989 (1979). Hepatocyte sterols and lipids were isolated by a modification of the methods described by Kates, in Techniques in Lipidology, (M. Kates, ed.), pp. 349, 360-363, North Holland Publ. Co., Amsterdam, 1972. To isolate sterols, cells are extracted with methanol:chloroform:water (2:1:0.8), the chloroform phase is separated and extracted with benzene to remove traces of water, then dried under nitrogen. The residue is saponified at 75° C. with 0.30N NaOH in methanol:water (9:1). The alkaline mixture is then extracted three times with petroleum ether to yield the non-saponifiable lipids which include the free as well as initially esterified cholesterol. The extract is dried under nitrogen in the presence of carrier cholesterol (0.1 mg) and 10% benzene, and the residue is dissolved in acetone:ethanol (1:1). Finally, the 3β-hydroxysterols are precipitated with an excess of digitonin, the precipitate is washed in acetone, dried under nitrogen, and dissolved in toluene:methanol (1:1). The ^3 H-labelled sterols are quantified by liquid scintillation and corrected for counting efficiency. In some tests ^14 C-cholesterol was added to initial extractions as an index of recovery, which averaged 80±3%. […]

| SMILES | IC50 [1] | IC50 [2] |
| --- | --- | --- |
| Cc1nnnn1C(/C=C/C(O)CC(O)CC(=O)O)=C(c1ccc(F)cc1)c1ccc(F)cc1 (centres unmarked) [Example 20] | 750 nM | 100 nM |
| O=C(O)CC(O)CC(O)/C=C/C(=C(c1ccc(F)cc1)c1ccc(F)cc1)n1cnnn1 (centres unmarked) [Example 28, 9,9-Bis(4-fluorophenyl)-3,5-dihydroxy-8-(1H-tetrazol-1-yl)-6,8-nonadienoic acid, sodium salt] | 120 nM | 20 nM |
| CC[C@H](C)C(=O)O[C@H]1C[C@@H](C)C=C2C=C[C@H](C)[C@H](CC[C@@H]3C[C@@H](O)CC(=O)O3)[C@H]21 [Mevinolin (Lovastatin), Mevinolin, reference compound] |  | 46 ± 26 nM |
